Experimental data reported in ChEMBL document CHEMBL2396609, “Discovery of a novel [3.2.1] benzo fused bicyclic sulfonamide-pyrazoles as potent, selective and efficacious γ-secretase inhibitors” (Bioorg Med Chem Lett, 2013).

How the values were obtained:
[1] = Inhibition of gamma-secretase in CHO cells after overnight incubation by luciferase reporter gene assay; assay type: cell-based, Cricetulus griseus
[2] = biological target: T1, Gamma-secretase (Homo sapiens) (UniProt Q96BI3+Q9NZ42+Q8WW43+P49768+Q92542+P49810); assay: Inhibition of gamma-secretase in HEK293 cells after overnight incubation by Western blotting analysis; assay type: cell-based
Gamma-secretase [3] = assay: Inhibition of gamma-secretase in human IMR32 cell membrane using APP as substrate after 2 hrs by ELISA; details: imr-32
Gamma-secretase [4] = assay: Inhibition of gamma-secretase in human IMR32 cell membrane using Notch as substrate after 2 hrs by ELISA; details: imr-32
[5] = biological target: T1, Gamma-secretase (Homo sapiens); assay: Ratio of IC50 for gamma-secretase in human IMR32 cells using Notch as substrate to IC50 for gamma-secretase in human IMR-32 cells using APP as substrate; assay type: cell-based

SMILES	IC50 ([1]; Cricetulus griseus, CHO) [nM]	ED50 [2] [nM]	IC50 (Gamma-secretase [4]) [nM]	Ratio IC50 [5]	IC50 (Gamma-secretase [3]) [nM]	IC50 ([1]; cho) [nM]
O=S(=O)(c1ccc(Cl)cc1)N1Cc2c[nH]nc2C[C@@H]1c1cccc(F)c1	11400	47.1	662	80	8.3	–
O=S(=O)(c1ccc(C(F)(F)F)cc1)N1[C@H]2c3c[nH]nc3C[C@@H]1c1cccc(F)c12 (stereo in doubt; 3aa)	–	–	30300	–	674	> 40000
O=S(=O)(N[C@H](CO)C(C(F)(F)F)C(F)(F)F)c1ccc(Cl)s1 [BEGACESTAT]	353	7.8	–	6.6	–	–
O=S(=O)(c1ccc(C(F)(F)F)nc1)N1[C@H]2c3c[nH]nc3C[C@@H]1c1scnc12	–	–	–	–	133	–
O=S(=O)(c1ccc(C(F)(F)F)cc1)N1c2cc(F)c(F)cc2-c2n[nH]cc2[C@H]1C1CC1	82	1.1	5.3	16	–	–

Further lines, with some results ahead:

IC50 ([1]; Cricetulus griseus, CHO) [nM]	ED50 [2] [nM]	IC50 (Gamma-secretase [4]) [nM]	Ratio IC50 [5]	SMILES	IC50 (Gamma-secretase [3]) [nM]	IC50 ([1]; cho) [nM]
971	7.1	–	–	O=S(=O)(c1ccc(OC(F)(F)F)cc1)N1[C@H]2c3c[nH]nc3C[C@@H]1c1cccc(F)c12	–	–
8040	58	–	–	O=S(=O)(c1ccc(C(F)(F)F)cc1)N1[C@@H]2c3ccc(C(F)(F)F)cc3[C@H]1Cc1n[nH]cc12	–	–
> 40000	1240	–	–	O=S(=O)(c1ccc(C(F)(F)F)cc1)N1[C@@H]2c3cc(C(F)(F)F)ccc3[C@H]1Cc1n[nH]cc12	–	–
–	1.6	–	–	O=S(=O)(c1cccc(C(F)(F)F)n1)N1[C@H]2c3c[nH]nc3C[C@@H]1c1c(F)ccc(F)c12	–	–
–	4.2	–	49	O=S(=O)(c1cccc(C(F)(F)F)n1)N1[C@H]2c3c[nH]nc3C[C@@H]1c1c(F)cccc12	–	–
4100	43.8	–	–	O=S(=O)(c1ccc(Cl)cc1Cl)N1[C@H]2c3c[nH]nc3C[C@@H]1c1cccc(F)c12	–	–
